ChEMBL document CHEMBL1135808, “A new type of mixed anhydride and its applications to the synthesis of 7-substituted 8-chloro-5,5-dioxoimidazo[1,2-b][1,4,2]benzodithiazines with in vitro antitumor activity” (2002)

What was measured:
[1] = test system: MCF7; experiment: Log of molar concentration leading to 50% cell death against breast cancer MCF 7 cell line was reported; type: functional; details: Homo sapiens, read-out: Log LC50 (the source's name) (converted)
[2] = test system: DU-145; experiment: In vitro growth inhibition against prostate cancer […] cell line was reported.; type: functional; details: Homo sapiens
[3] = test system: PC-3; experiment: Log of molar concentration leading to 50% cell death against prostate cancer PC-3 cell line was reported; type: functional; details: Homo sapiens, read-out: Log LC50 (the source's name) (converted)
[4] = test system: U-251; experiment: Log of molar concentration leading to 50% cell death against CNS cancer U251 cell line was reported; type: functional; details: Homo sapiens, read-out: Log LC50 (the source's name) (converted)
[5] = test system: OVCAR-8; experiment: In vitro total growth inhibition against ovarian cancer OVCAR-8 cell lines was reported.; type: functional; details: Homo sapiens, read-out: Log TGI (converted)
[6] = test system: T47D; experiment: In vitro growth inhibition against breast cancer […] cell line was reported.; type: functional; details: Homo sapiens
[7] = test system: HOP-62; experiment: In vitro total growth inhibition against non-small-cell lung cancer HOP-62 cell lines was reported.; type: functional; details: Homo sapiens, read-out: Log TGI (converted)
[8] = test system: RPMI-8226; experiment: Log of molar concentration leading to 50% cell death against leukemia […] cell line was reported; type: functional; details: Homo sapiens, read-out: Log LC50 (the source's name) (converted)
[9] = test system: NCI-H322M; experiment: In vitro total growth inhibition against non-small-cell lung cancer NCI-H322M cell lines was reported.; type: functional; details: Homo sapiens, read-out: Log TGI (converted)
[10] = test system: NCI/ADR-RES; experiment: In vitro total growth inhibition against breast cancer NCI/ADR-RES cell lines was reported.; type: functional; details: Homo sapiens, read-out: Log TGI (converted)
[11] = test system: DU-145; experiment: Log of molar concentration leading to 50% cell death against prostate cancer […] cell line was reported; type: functional; details: Homo sapiens, read-out: Log LC50 (the source's name) (converted)
[12] = test system: SF-295; experiment: In vitro growth inhibition against CNS cancer SF-295 cell line was reported.; type: functional; details: Homo sapiens
[13] = test system: BT-549; experiment: In vitro growth inhibition against breast cancer BT 549 cell line was reported.; type: functional; details: Homo sapiens
[14] = test system: HL-60; experiment: In vitro growth inhibition against leukemia HL-60(TB) cell line was reported.; type: functional; details: Homo sapiens
[15] = test system: 786-0; experiment: In vitro growth inhibition against renal cancer […] cell line was reported.; type: functional; details: Homo sapiens
[16] = test system: CCRF-CEM; experiment: In vitro total growth inhibition against leukemia CCRF cell lines was reported.; type: functional; details: Homo sapiens, read-out: Log TGI (converted)
[17] = test system: UACC-62; experiment: Log of molar concentration leading to 50% cell death against melanoma UACC-62 cell line was reported; type: functional; details: Homo sapiens, read-out: Log LC50 (the source's name) (converted)
[18] = test system: M14; experiment: Log of molar concentration leading to 50% cell death against melanoma M14 cell line was reported; type: functional; details: Homo sapiens, read-out: Log LC50 (the source's name) (converted)
[19] = test system: A549; experiment: In vitro growth inhibition against non-small-cell lung cancer A 549/ATCC cell line was reported.; type: functional; details: Homo sapiens
[20] = test system: HL-60; experiment: In vitro total growth inhibition against leukemia HL-60(TB) cell lines was reported.; type: functional; details: Homo sapiens, read-out: Log TGI (converted)
[21] = test system: SK-MEL-2; experiment: Log of molar concentration leading to 50% cell death against melanoma SK-MEL-2 cell line was reported; type: functional; details: Homo sapiens, read-out: Log LC50 (the source's name) (converted)
[22] = test system: HCC 2998; experiment: In vitro total growth inhibition against colon cancer HCC2998 cell lines was reported.; type: functional; details: Homo sapiens, read-out: Log TGI (converted)
[23] = test system: MDA-MB-435; experiment: In vitro total growth inhibition against breast cancer MDA-MB-435 cell lines was reported.; details: Homo sapiens, read-out: Log TGI (converted)
[24] = test system: MCF7; experiment: In vitro total growth inhibition against breast cancer MCF 7 cell lines was reported.; type: functional; details: Homo sapiens, read-out: Log TGI (converted)
[25] = test system: HCC 2998; experiment: In vitro growth inhibition against colon cancer HCC2998 cell line was reported.; type: functional; details: Homo sapiens
[26] = test system: UACC-62; experiment: In vitro total growth inhibition against melanoma UACC-62 cell lines was reported.; type: functional; details: Homo sapiens, read-out: Log TGI (converted)
[27] = test system: HCT-116; experiment: In vitro total growth inhibition against colon cancer HCT116 cell lines was reported.; type: functional; details: Homo sapiens, read-out: Log TGI (converted)
[28] = test system: SR; experiment: In vitro total growth inhibition against leukemia SR cell lines was reported.; type: functional; details: Homo sapiens, read-out: Log TGI (converted)
[29] = test system: SK-MEL-2; experiment: In vitro total growth inhibition against melanoma SK-MEL-2 cell lines was reported.; type: functional; details: Homo sapiens, read-out: Log TGI (converted)
[30] = test system: TK-10; experiment: In vitro total growth inhibition against renal cancer TK-10 cell lines was reported.; type: functional; details: Homo sapiens, read-out: Log TGI (converted)
[31] = test system: MDA-MB-231; experiment: In vitro growth inhibition against breast cancer MDA-MB-231/ATCC cell line was reported.; type: functional; details: Homo sapiens
[32] = test system: MDA-MB-231; experiment: Log of molar concentration leading to 50% cell death against breast cancer MDA-MB-231/ATCC cell line was reported; type: functional; details: Homo sapiens, read-out: Log LC50 (the source's name) (converted)
[33] = test system: IGROV-1; experiment: In vitro total growth inhibition against ovarian cancer IGROV1 cell lines was reported.; type: functional; details: Homo sapiens, read-out: Log TGI (converted)
[34] = test system: M14; experiment: In vitro growth inhibition against melanoma M14 cell line was reported.; type: functional; details: Homo sapiens
[35] = test system: NCI-H46; experiment: In vitro total growth inhibition against non-small-cell lung cancer […] cell lines was reported.; type: functional; details: Homo sapiens, read-out: Log TGI (converted)
[36] = test system: NCI-H226; experiment: In vitro growth inhibition against non-small-cell lung cancer NCI-H226 cell line was reported.; type: functional; details: Homo sapiens
[37] = test system: ACHN; experiment: In vitro total growth inhibition against renal cancer ACHN cell lines was reported.; type: functional; details: Homo sapiens, read-out: Log TGI (converted)
[38] = test system: MDA-N; experiment: In vitro growth inhibition against breast cancer MDA-N cell line was reported.; type: functional; details: Homo sapiens
[39] = test system: NCI-H23; experiment: In vitro total growth inhibition against non-small-cell lung cancer NCI-H23 cell lines was reported.; type: functional; details: Homo sapiens, read-out: Log TGI (converted)
[40] = test system: RXF 393; experiment: Log of molar concentration leading to 50% cell death against renal cancer RXF 393 cell line was reported; type: functional; details: Homo sapiens, read-out: Log LC50 (the source's name) (converted)
[41] = test system: OVCAR-8; experiment: In vitro growth inhibition against ovarian cancer OVCAR-8 cell line was reported.; type: functional; details: Homo sapiens
[42] = test system: SF-295; experiment: Log of molar concentration leading to 50% cell death against CNS cancer SF-295 cell line was reported; type: functional; details: Homo sapiens, read-out: Log LC50 (the source's name) (converted)
[43] = test system: SK-MEL-28; experiment: Log of molar concentration leading to 50% cell death against melanoma SK-MEL-28 cell line was reported; type: functional; details: Homo sapiens, read-out: Log LC50 (the source's name) (converted)
[44] = test system: UACC-257; experiment: Log of molar concentration leading to 50% cell death against melanoma UACC-257 cell line was reported; type: functional; details: Homo sapiens, read-out: Log LC50 (the source's name) (converted)
[45] = test system: MCF7; experiment: In vitro growth inhibition against breast cancer MCF 7 cell line was reported.; type: functional; details: Homo sapiens
[46] = test system: RPMI-8226; experiment: In vitro total growth inhibition against leukemia […] cell lines was reported.; type: functional; details: Homo sapiens, read-out: Log TGI (converted)
[47] = test system: HCT-116; experiment: Log of molar concentration leading to 50% cell death against colon cancer HCT116 cell line was reported; type: functional; details: Homo sapiens, read-out: Log LC50 (the source's name) (converted)
[48] = test system: HT-29; experiment: In vitro total growth inhibition against colon cancer HT-29 cell lines was reported.; type: functional; details: Homo sapiens, read-out: Log TGI (converted)
[49] = test system: NCI-H226; experiment: In vitro total growth inhibition against non-small-cell lung cancer NCI-H226 cell lines was reported.; type: functional; details: Homo sapiens, read-out: Log TGI (converted)
[50] = test system: MOLT-4; experiment: In vitro growth inhibition against leukemia MOLT-4 cell line was reported.; type: functional; details: Homo sapiens
[51] = test system: KM12; experiment: Log of molar concentration leading to 50% cell death against colon cancer KM12 cell line was reported; type: functional; details: Homo sapiens, read-out: Log LC50 (the source's name) (converted)
[52] = test system: UACC-257; experiment: In vitro total growth inhibition against melanoma UACC-257 cell line was reported.; type: functional; details: Homo sapiens
[53] = test system: SF-295; experiment: In vitro total growth inhibition against CNS cancer SF-295 cell lines was reported.; type: functional; details: Homo sapiens, read-out: Log TGI (converted)
[54] = species on record: Homo sapiens; experiment: In vitro total growth inhibition against non-small-cell lung cancer EKVX cell lines was reported.; type: functional; details: read-out: Log TGI (converted)
[55] = test system: NCI-H322M; experiment: In vitro growth inhibition against non-small-cell lung cancer […] cell line was reported.; type: functional; details: Homo sapiens
[56] = test system: SK-MEL-5; experiment: In vitro total growth inhibition against melanoma SK-MEL-5 cell lines was reported.; type: functional; details: Homo sapiens, read-out: Log TGI (converted)
[57] = test system: SK-MEL-28; experiment: In vitro growth inhibition against melanoma SK-MEL-28 cell line was reported.; type: functional; details: Homo sapiens
[58] = test system: OVCAR-5; experiment: In vitro growth inhibition against ovarian cancer OVCAR-5 cell line was reported.; type: functional; details: Homo sapiens
[59] = test system: OVCAR-4; experiment: Log of molar concentration leading to 50% cell death against ovarian cancer OVCAR-4 cell line was reported; type: functional; details: Homo sapiens, read-out: Log LC50 (the source's name) (converted)
[60] = test system: OVCAR-4; experiment: In vitro growth inhibition against ovarian cancer OVCAR-4 cell line was reported.; type: functional; details: Homo sapiens

In the case of `O=C(Nc1nccs1)c1cc2c(cc1Cl)Sc1nccn1S2(=O)=O`, the CC50 [1] is reported as 44.7 µM, the GI50 [2] is reported as 16.2 µM and the CC50 [3] is reported as 66.1 µM. For the same compound, the CC50 [4] was 56.2 µM, the TGI [5] was 37.2 µM and the GI50 [6] was 23.4 µM. For the same compound, the TGI [7] was 30.2 µM, the CC50 [8] was 57.5 µM and the TGI [9] was 33.9 µM. It also gave a TGI [10] of 44.7 µM, a CC50 [11] of 27.5 µM and a GI50 [12] of 18.2 µM. For the same compound, the GI50 [13] was 18.2 µM, the GI50 [14] was 13.5 µM and the GI50 [15] was 15.8 µM. The TGI [16] was 24.5 µM, the CC50 [17] was 52.5 µM and the CC50 [18] was 67.6 µM. It also gave a GI50 [19] of 24 µM, a TGI [20] of 30.9 µM and a CC50 [21] of 63.1 µM. The TGI [22] was 29.5 µM, the TGI [23] was 31.6 µM and the TGI [24] was 20 µM. For the same compound, the GI50 [25] was 15.8 µM, the TGI [26] was 27.5 µM and the TGI [27] was 29.5 µM. For the same compound, the TGI [28] was 12 µM, the TGI [29] was 33.1 µM and the TGI [30] was 34.7 µM. The GI50 [31] was 19.5 µM, the CC50 [32] was 67.6 µM and the TGI [33] was 29.5 µM. For the same compound, the GI50 [34] was 17.8 µM, the TGI [35] was 29.5 µM and the GI50 [36] was 19.5 µM. It also gave a TGI [37] of 32.4 µM, a GI50 [38] of 17.8 µM and a TGI [39] of 33.9 µM. The CC50 [40] was 83.2 µM, the GI50 [41] was 17.4 µM and the CC50 [42] was 64.6 µM. It also gave a CC50 [43] of 70.8 µM, a CC50 [44] of 52.5 µM and a GI50 [45] of 6.76 µM. It also gave a TGI [46] of 23.4 µM, a CC50 [47] of 55 µM and a TGI [48] of 46.8 µM. For the same compound, the TGI [49] was 35.5 µM, the GI50 [50] was 19.1 µM and the CC50 [51] was 57.5 µM. The GI50 [52] was 13.8 µM, the TGI [53] was 34.7 µM and the TGI [54] was 44.7 µM. The GI50 [55] was 17.4 µM, the TGI [56] was 30.2 µM and the GI50 [57] was 20 µM. The GI50 [58] was 21.9 µM, the CC50 [59] was 91.2 µM and the GI50 [60] was 16.2 µM.
